From patent US11382985B2, “Anti-tumour immune responses to modified self-epitopes” (Scancell Limited, priority 2015, dated 2022)
Square brackets hold non-standard residues; d marks the D form. Ends that are not written are not given here. Cit = NC(=O)NCCC[C@H](N)C(=O)O

Columns and labels:
splenocytes [1] = assay: Peptide immunisation and ex vivo Elispot, DR4 mice; assay type: in vivo, HLA-DR4 transgenic mouse; details: for IFNγ response to the human sequence / IFNγ response to the mouse sequence: single immunisation of the human citrullinated peptide; for IFNγ response to 15mer peptide spanning 241-260: label = 15mer used for restimulation
Method: (§1) C57BL/6 mice (Charles River, UK), HLA-DR4 mice (Taconic, USA), HHDII/DR1 mice (Pasteur institute, France) and the HHD/HLA-DP4 transgenic strain of mouse as described in patent WO2013/017545 A1 (EMMA repository, France) were used, aged between 8 and 12 weeks, and cared for by the staff at Nottingham Trent University. All work was carried out under a Home Office project licence. Peptides were dissolved in PBS to 1 mg/ml and then emulsified (a series of dilutions) with different adjuvants: CpG and MPLA 6 μg/mouse of each (Invivogen, UK), Incomplete Freund's 50 μl/mouse (Sigma, UK), poly I:C 10 μg/mouse (Invivogen, UK), Imiquimod 25 μg/mouse (Invivogen, UK) and GMCSF 10 μg/mouse (Peprotech, UK). Peptides (25 μg/mouse) were injected subcutaneously at the base of the tail. DNA (1 μg/mouse) was coated onto 1.0 μm gold particles (BioRad, Hemel Hempstead, UK) using the manufacturer's instructions and administered intradermally by genegun (BioRad). Homspera (10 nM/mouse) (PeptideSynthetics, UK) was injected intradermally with genegun immunisation. Mice were immunized at either day 0 for peptide immunisation or days, 0 and 7 for genegun immunisation, unless otherwise stated. Spleens were removed for analysis at day 14 for peptide and day 20 for peptide or genegun immunisation unless stated otherwise.
(§2) Elispot assays were performed using murine IFNγ, IL-17 and IL-10 capture and detection reagents according to the manufacturer's instructions (Mabtech, Sweden). In brief, anti-IFNγ, IL-17 and IL-10 antibodies were coated onto wells of 96-well Immobilin-P plate. Synthetic peptides (at a variety of concentrations) and 5×10^5 per well splenocytes were added to the wells of the plate in triplicate. Tumour target cells were added where relevant at 5×10^4/well in triplicate and plates incubated for 40 hrs at 37° C. After incubation, captured IFN and IL-10 were detected by biotinylated anti-IFNγ and IL-10 antibodies and developed with a streptavidin alkaline phosphatase and chromogenic substrate. Spots were analysed and counted using an automated plate reader (Cellular Technologies Ltd).

splenocytes [2] = assay: Screening of citrullinated Enolase peptide pools, ex vivo IFNγ Elispot, C57BL/6 mice; assay type: in vivo, C57BL/6 mouse; details: single immunisation with pool of 4-6 human citrullinated peptides, 20 μg each, CpG/MPLA, day 14, label = peptide used for restimulation
Method: as §1, §2
(§3) Screening was performed to identify potential citrullinated Enolase epitopes in mice. Mice were immunised with pools of 4-6 human citrullinated peptides. […] Each pool was administered as a single immunisation containing 20 μg of each peptide and CpG/MPLA as an adjuvant. After 14 days the mice were culled and the immune responses to each peptide within the immunising pool were assessed by ex vivo Elispot (FIG. 2). In addition, the splenocytes were screened against the murine equivalent sequences. We have previously shown that citrullinated peptides can induce responses in the transgenic DR4 mouse strain. Given that different mouse strains have different MHC repertoires a number of strains were used for screening. Peptide responses were assessed in C57BL/6 mice as well as transgenic strains expressing human DR4 or HHD/DR1 in a C57BL/6 background (see materials and methods).

splenocytes [3] = assay: Peptide immunisation and ex vivo Elispot, C57Bl/6 mice; assay type: in vivo, C57Bl/6 mouse; details: C57Bl/6 mice immunised with the human citrullinated peptide
Method: as §1, §2

splenocytes [4] = assay: Screening of citrullinated Enolase peptide pools, ex vivo IFNγ Elispot, HHD/DR1 mice; assay type: in vivo, transgenic HHD/DR1 mouse; details: single immunisation with pool of 4-6 human citrullinated peptides, 20 μg each, CpG/MPLA, day 14, label = peptide used for restimulation
Method: as §1, §2, §3

splenocytes [5] = assay: Peptide immunisation and ex vivo Elispot, DR1/HHD mice; assay type: in vivo, HHD/DR1 transgenic mouse; details: single immunisation of the human citrullinated peptide
Method: as §1, §2

splenocytes [6] = assay: Screening of citrullinated Enolase peptide pools, ex vivo IFNγ Elispot, DR4 mice; assay type: in vivo, transgenic DR4 mouse; details: single immunisation with pool of 4-6 human citrullinated peptides, 20 μg each, CpG/MPLA, day 14, label = peptide used for restimulation
Method: C57BL/6 mice (Charles River, UK), HLA-DR4 mice (Taconic, USA), HHDII/DR1 mice (Pasteur institute, France) and the HHD/HLA-DP4 transgenic strain of mouse as described in patent WO2013/017545 A1 (EMMA repository, France) were used, aged between 8 and 12 weeks, and cared for by the staff at Nottingham Trent University. All work was carried out under a Home Office project licence. Peptides were dissolved in PBS to 1 mg/ml and then emulsified (a series of dilutions) with different adjuvants: CpG and MPLA 6 μg/mouse of each (Invivogen, UK), Incomplete Freund's 50 μl/mouse (Sigma, UK), poly I:C 10 μg/mouse (Invivogen, UK), Imiquimod 25 μg/mouse (Invivogen, UK) and GMCSF 10 μg/mouse (Peprotech, UK). […]
Elispot assays were performed using murine IFNγ, IL-17 and IL-10 capture and detection reagents according to the manufacturer's instructions (Mabtech, Sweden). […] After incubation, captured IFN and IL-10 were detected by biotinylated anti-IFNγ and IL-10 antibodies and developed with a streptavidin alkaline phosphatase and chromogenic substrate. Spots were analysed and counted using an automated plate reader (Cellular Technologies Ltd).
Screening was performed to identify potential citrullinated Enolase epitopes in mice. […] After 14 days the mice were culled and the immune responses to each peptide within the immunising pool were assessed by ex vivo Elispot (FIG. 2). […]

splenocytes [7] = assay: Peptide immunisation and ex vivo Elispot, DP4 mice; assay type: in vivo, HHD/HLA-DP4 transgenic mouse
Method: as §1, §2

[8] = DR4 mice immunised with human 241cit

EVDLFTSKGLF-CIT-AAVPSGAS [Enolase 21cit]
IFNγ response to the human sequence (splenocytes [1]; DR4 mice): not
IFNγ response to the mouse sequence (splenocytes [1]; DR4 mice): low level but significant response
IFNγ response to peptide compared to media (splenocytes [2]): significant response
IFNγ response in presence of CD4 blocking antibody (splenocytes [3]): efficiently blocked
IFNγ response in presence of CD8 blocking antibody (splenocytes [3]): not
IFNγ response to the citrullinated peptide (splenocytes [3]): strong IFNγ responses

EVDLYTAKGLF-CIT-AAVPSGAS [mouse 21cit]
IFNγ response to peptide compared to media (splenocytes [2]): not

FKSPDDPS-CIT-YISPDQLADLY [human 261cit]
IFNγ response to peptide compared to media (splenocytes [2]): significant response

FKSPDDPS-CIT-YITPDQLADLY [mouse 261cit]
IFNγ response to peptide compared to media (splenocytes [2]): not

IFDScitGNPTVEVDLF [enolase 11cit]
IFN response to the equivalent murine sequence (splenocytes [3]): cross reacted
IFNγ response in presence of CD4 blocking antibody (splenocytes [3]): abrogated the response
IFNγ response in presence of CD8 blocking antibody (splenocytes [3]): no effect
IFNγ response to the citrullinated peptide (splenocytes [3]): IFN responses
IFNγ response to the wt peptide (splenocytes [3]): minimal reactivity
IL-10 response to the citrullinated peptide (splenocytes [3]): No IL-10 responses

KGVPLY-CIT-HIADLAGNPEVIL [mouse 126cit]
IFNγ response to peptide compared to media (splenocytes [2]): significant response
IFNγ response to peptide compared to media (splenocytes [4]): not

KGVPLY-CIT-HIADLAGNSEVIL [Enolase 126cit]
IFNγ response to the human sequence (splenocytes [5]): not
IFNγ response to the human sequence (splenocytes [1]; DR4 mice): low level significant response
IFNγ response to peptide compared to media (splenocytes [2]): not
IFNγ response to peptide compared to media (splenocytes [4]): significant response

MSILKIHA-CIT-EIFDSRGNPTV [Enolase 1-20]
IFNγ response to peptide compared to media (splenocytes [4]): did not induced a significant response

MSILRIHA-CIT-EIFDSRGNPTV [mouse 1cit]
IFNγ response to peptide compared to media (splenocytes [4]): did induce a response

VGDDLTVTNPK-CIT-IAKAASEK [mouse 316cit]
IFNγ response to peptide compared to media (splenocytes [4]): not

VGDDLTVTNPK-CIT-IAKAVNEK [Enolase 316cit]
IFNγ response to the human sequence (splenocytes [5]): moderate response
IFNγ response to the mouse sequence (splenocytes [5]): not
IFNγ response to the human sequence (splenocytes [1]; DR4 mice): moderate response
IFNγ response to the mouse sequence (splenocytes [1]; DR4 mice): not
IFNγ response to peptide compared to media (splenocytes [4]): significant response

VIGMDVAASEFY-CIT-SGKYDLD (VIGMDVAASEFY[Cit]SGKYDLD) [mouse 241cit]
IFNγ response in presence of human MHC class II blocking antibody (L243) (splenocytes [1]; DR4 mice immunised with human 241cit, label = restimulating peptide): significantly reduced
time after immunisation at which IFNγ response is detectable (splenocytes [1]; DR4 mice, single dose in CpG/MPLA, sacrificed after 2, 6 or 14 days): 2 days
IFNγ response to peptide compared to media (splenocytes [6]): significant response
IFNγ response compared to the wild type peptides (splenocytes [7]; DP4 mice, three doses of human Enolase 241cit, label = restimulating peptide): increased IFNγ responses
IFNγ responses to citrullinated and wildtype peptide (splenocytes [7]; DP4 transgenic mice immunised with the murine peptide, three doses): specific to the citrullinated peptide but not the wildtype

aa241-255: 15mer peptide spanning the Enolase 241-260 sequence (VIGMDVAASEFFRSG; UniProt P06733 241-255, looked up, fragment)
IFNγ response to 15mer peptide spanning 241-260 (splenocytes [1]; [8]): stimulating specific responses

aa246-260: 15mer peptide spanning the Enolase 241-260 sequence (VAASEFFRSGKYDLD; UniProt P06733 246-260, looked up, fragment)
IFNγ response to 15mer peptide spanning 241-260 (splenocytes [1]; [8]): no response
